Test results as given in ChEMBL document CHEMBL6127120, “Antiplasmodial and Insecticidal Activities of Third-Generation Ivermectin Hybrids” (J Med Chem, 2024).
Calls of active or inactive are those of the source. The rule behind the calls is not given here.

How the values were obtained:
Format in all cases: functional, organism-based
Plasmodium berghei [1] = experiment: Anti-plasmodial activity against pre-erythrocytic stage Plasmodium berghei infected in human Huh-7 cells at 10 to 500 nM by bioluminescence assay; settings: dose 10-500 nM
Plasmodium berghei [2] = experiment: Anti-plasmodial activity against pre-erythrocytic stage Plasmodium berghei infected in human Huh-7 cells by bioluminescence assay
Anopheles stephensi = experiment: Anti-insecticidal activity against female Anopheles stephensi mosquitoes assessed as mosquito survival treated after 18 to 22 hrs starvation using 70 ng/ml compound containing human O+ blood meal via artificial membrane measured after 14 days relative to control
Plasmodium berghei [3] = experiment: Anti-plasmodial activity against hepatic stage GFP-expressing Plasmodium berghei infected in human Huh-7 cells assessed as parasite invasion of host cells treated at IC90 measured after 48 hrs of post-infection by flow cytometry
Plasmodium berghei [4] = experiment: In vivo antiplasmodial activity against Balb/c mouse infected with luciferase expressing Plasmodium berghei infected in red blood cells assessed as parasitemia in blood by measuring bioluminescence at 2 mg/kg, oral gavage 4 consecutive treatment measured upto day 8; settings: time 8.0 day
Plasmodium berghei [5] = experiment: Anti-plasmodial activity against hepatic stage GFP-expressing Plasmodium berghei infected in human Huh-7 cells assessed as parasite invasion of host cells treated at IC90 measured after 2 hrs of post-infection by flow cytometry
Plasmodium falciparum = experiment: Anti-plasmodial activity against erythrocytic stage Plasmodium falciparum NF54 in […] measured after 48 hrs by SYBR green dye based flow cytometry; settings: NF54, 48 h
Plasmodium berghei [6] = experiment: In vivo antiplasmodial activity against Balb/c mouse infected with luciferase expressing Plasmodium berghei infected in red blood cells assessed as parasitemia in blood by measuring bioluminescence at 50 mg/kg, oral gavage 4 consecutive treatment measured upto day 8; settings: time 8.0 day

SMILES	Activity (Plasmodium berghei [1])	IC50 (Plasmodium berghei [2])	Activity (Anopheles stephensi)	IC50 (Plasmodium falciparum)	further results
CCC(C)[C@H]1O[C@]2(CC[C@@H]1C)C[C@@H]1C[C@@H](C/C=C(\C)[C@@H](O[C@H]3C[C@H](OC)[C@@H](O)[C@H](C)O3)[C@@H](C)/C=C/C=C3\CO[C@@H]4[C@H](O)C(CO)=C[C@@H](C(=O)O1)[C@]34O)O2 (stereo not given in full)	inactive	2600 nM	Active		
CCOC(=O)c1c(C)nc(OCc2cn(CC(=O)O[C@H]3[C@H](C)O[C@@H](O[C@@H]4/C(C)=C/C[C@@H]5C[C@@H](C[C@]6(CC[C@H](C)[C@@H](C(C)CC)O6)O5)OC(=O)[C@@H]5C=C(C)[C@@H](O)[C@H]6OC/C(=C\C=C\[C@@H]4C)[C@]65O)C[C@@H]3OC)nn2)nc1-c1cc(OC)c(OC)cc1[N+](=O)[O-] (stereo not given in full)	Dose-Dependent Effect	1540 nM		110 nM	Activity (Plasmodium berghei [3]): Active; IC90 (Plasmodium berghei [2]): 3180 nM; Activity (Plasmodium berghei [4]): inactive; Activity (Plasmodium berghei [5]): inactive
CCC(C)[C@H]1O[C@]2(CC[C@@H]1C)C[C@@H]1C[C@@H](C/C=C(\C)[C@@H](O)[C@@H](C)/C=C/C=C3\CO[C@@H]4[C@H](O)C(CO)=C[C@@H](C(=O)O1)[C@]34O)O2 (stereo not given in full)	inactive	1640 nM	Active		
CCN(CC)CCCC(C)Nc1ccnc2cc(Cl)ccc12 (stereo not given)					Activity (Plasmodium berghei [6]): Active
CCC(C)[C@H]1O[C@]2(CC[C@@H]1C)C[C@@H]1C[C@@H](C/C=C(\C)[C@@H](O[C@H]3C[C@H](OC)[C@@H](OC(=O)CCl)[C@H](C)O3)[C@@H](C)/C=C/C=C3\CO[C@@H]4[C@H](O[Si](C)(C)C(C)(C)C)C(C)=C[C@@H](C(=O)O1)[C@]34O)O2 (stereo not given in full)	inactive				
CCC(C)[C@H]1O[C@]2(CC[C@@H]1C)C[C@@H]1C[C@@H](C/C=C(\C)[C@@H](O[C@H]3C[C@H](OC)[C@@H](O[C@H]4C[C@H](OO)[C@@H](O)[C@H](C)O4)[C@H](C)O3)[C@@H](C)/C=C/C=C3\CO[C@@H]4[C@H](O)C(C)=C[C@@H](C(=O)O1)[C@]34O)O2 (stereo not given in full)	Dose-Dependent Effect	1500 nM		460 nM	IC90 (Plasmodium berghei [2]): 3100 nM
CCC(C)[C@H]1O[C@]2(CC[C@@H]1C)C[C@@H]1C[C@@H](C/C=C(\C)[C@@H](O[C@H]3C[C@H](OC)[C@@H](O[C@H]4C[C@H](OO)[C@@H](O)[C@H](C)O4)[C@H](C)O3)[C@@H](C)/C=C/C=C3\CO[C@@H]4[C@H](O[Si](C)(C)C(C)(C)C)C(C)=C[C@@H](C(=O)O1)[C@]34O)O2 (stereo not given in full)	Dose-Dependent Effect	3690 nM		700 nM	
CCC(C)[C@H]1O[C@]2(CC[C@@H]1C)C[C@@H]1C[C@@H](C/C=C(\C)[C@@H](O[C@H]3C[C@H](OC)[C@@H](OC(=O)CCl)[C@H](C)O3)[C@@H](C)/C=C/C=C3\CO[C@@H]4[C@H](O)C(C)=C[C@@H](C(=O)O1)[C@]34O)O2 (stereo not given in full)	inactive				
CCC(C)[C@H]1O[C@]2(CC[C@@H]1C)C[C@@H]1C[C@@H](C/C=C(\C)[C@@H](O[C@H]3C[C@H](OC)[C@@H](O[C@H]4C[C@H](OO)[C@@H](OC(=O)CCl)[C@H](C)O4)[C@H](C)O3)[C@@H](C)/C=C/C=C3\CO[C@@H]4[C@H](O)C(C)=C[C@@H](C(=O)O1)[C@]34O)O2 (stereo not given in full)	Dose-Dependent Effect	2610 nM	Active	300 nM	
CCC(C)[C@H]1O[C@]2(CC[C@@H]1C)C[C@@H]1C[C@@H](C/C=C(\C)[C@@H](O[C@H]3C[C@H](OC)[C@@H](OC(=O)CNC4CCNCC4)[C@H](C)O3)[C@@H](C)/C=C/C=C3\CO[C@@H]4[C@H](O)C(C)=C[C@@H](C(=O)O1)[C@]34O)O2 (stereo not given in full)	inactive	5700 nM	Active		
CCC(C)[C@H]1O[C@]2(CC[C@@H]1C)C[C@@H]1C[C@@H](C/C=C(\C)[C@@H](O[C@H]3C[C@H](OC)[C@@H](O[C@H]4C[C@H](OO)[C@@H](OC(=O)CCl)[C@H](C)O4)[C@H](C)O3)[C@@H](C)/C=C/C=C3\CO[C@@H]4[C@H](O[Si](C)(C)C(C)(C)C)C(C)=C[C@@H](C(=O)O1)[C@]34O)O2 (stereo not given in full)	inactive				
CCC(C)[C@H]1O[C@]2(CC[C@@H]1C)C[C@@H]1C[C@@H](C/C=C(\C)[C@@H](O[C@H]3C[C@H](OC)[C@@H](O)[C@H](C)O3)[C@@H](C)/C=C/C=C3\CO[C@@H]4[C@H](O)C(C)=C[C@@H](C(=O)O1)[C@]34O)O2 (stereo not given in full)	inactive	5630 nM	Active		
CCC(C)[C@H]1O[C@]2(CC[C@@H]1C)C[C@@H]1C[C@@H](C/C=C(\C)[C@@H](O[C@H]3C[C@H](OC)[C@@H](O[C@H]4C[C@H](OO)[C@@H](OC(=O)CNC5CCNCC5)[C@H](C)O4)[C@H](C)O3)[C@@H](C)/C=C/C=C3\CO[C@@H]4[C@H](O)C(C)=C[C@@H](C(=O)O1)[C@]34O)O2 (stereo not given in full)	inactive	5800 nM	inactive		
CCC(C)[C@H]1O[C@]2(CC[C@@H]1C)C[C@@H]1C[C@@H](C/C=C(\C)[C@@H](O[C@H]3C[C@H](OC)[C@@H](O)[C@H](C)O3)[C@@H](C)/C=C/C=C3\CO[C@@H]4[C@H](O[Si](C)(C)C(C)(C)C)C(C)=C[C@@H](C(=O)O1)[C@]34O)O2 (stereo not given in full)	Dose-Dependent Effect	2910 nM		720 nM	
CCOC(=O)c1c(C)nc(OCc2cn(CC(=O)O[C@H]3[C@H](C)O[C@@H](O[C@H]4[C@H](C)O[C@@H](O[C@@H]5/C(C)=C/C[C@@H]6C[C@@H](C[C@]7(CC[C@H](C)[C@@H](C(C)CC)O7)O6)OC(=O)[C@@H]6C=C(C)[C@@H](O)[C@H]7OC/C(=C\C=C\[C@@H]5C)[C@]76O)C[C@@H]4OC)C[C@@H]3OC)nn2)nc1-c1cc(OC)c(OC)cc1[N+](=O)[O-] (stereo not given in full)	Dose-Dependent Effect	2330 nM		30 nM	Activity (Plasmodium berghei [3]): Active; IC90 (Plasmodium berghei [2]): 4280 nM; Activity (Plasmodium berghei [4]): inactive; Activity (Plasmodium berghei [5]): inactive
CCC(C)[C@H]1O[C@]2(CC[C@@H]1C)C[C@@H]1C[C@@H](C/C=C(\C)[C@@H](O[C@H]3C[C@H](OC)[C@@H](O[C@H]4C[C@H](OO)[C@@H](O)[C@H](C)O4)[C@H](C)O3)[C@@H](C)/C=C/C=C3\CO[C@@H]4[C@H](O)C(CO)=C[C@@H](C(=O)O1)[C@]34O)O2 (stereo not given in full)	inactive	2220 nM	Active		
